In assay [1] the target is T1, TDG (Homo sapiens, UniProt Q13569). In words: TDG inhibitory activity of compounds in cells (caC-cmv-firefly luciferase reporter, HEK 293T TDG KO cells transfected with pCDNA4-TDG). In kind it is cell-based. The conditions noted are these: read-out: Inhibition rate on TDG activity. In a few lines:
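TDG-knockout HEK 293T cells co-transfected with an in vitro Tet1-oxidised, 5caC-modified CMV-firefly reporter, a Renilla control and a TDG (or empty myc) plasmid, then treated with compounds for 72 h at 37°C. Firefly/Renilla ratio gives relative TDG activity inhibition, with activity bins set at 10 μM.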
Background: A reporter such as luciferase makes a cellular process visible.

For assay [2], the target named is T1, TDG. Kind of assay: Inhibition of TDG mismatch repair activity (fluorescent G·U double-stranded DNA probe T1-T2). In kind it is biochemical. Particulars: TDG 100 nM/L, preincubated with compound 37° C. 30 minutes; probe 30 nM; read-out: Inhibitory activity on TDG mismatch repair IC50. In a few lines: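 TDG (100 nM/L) preincubated with compound 30 min at 37 °C in 20 mM HEPES pH7.5, 100 mM NaCl, 0.2 mM EDTA, 2.5 mM MgCl2, then 30 nM FAM/biotin G·U probe for 30 min at 25 °C. After streptavidin bead capture and 200 mM NaOH, supernatant fluorescence read at 485/520 nm; IC50 determined.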

The subject of assay [3] is Lung cancer cell line Calu-1. Kind of assay: Inhibition of the growth of Calu-1 cells (CellTiter-Glo, 72 hours). Particulars: Homo sapiens, 72 hours of culturing, read-out: Inhibitory activity on alu-1 cell growth IC50. In kind it is cell-based. In a few lines: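 Calu-1 cells in McCoy's 5A with 10% FBS, seeded at 500 cells/well and dosed the next day at 0.1% DMSO final. Viability was read by CellTiter-Glo 2.0 luminescence after 72 h at 37° C. Activity class: ++ for IC50 ≤5 μM, + for IC50 >5 μM.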

14 compounds from patent US20220213070A1, “COMPOUNDS INHIBITING TDG ACTIVITY” (EPITAS BIOSCIENCES (SHANGHAI) CO., LTD., priority 2019, published 2022) can be followed below.

T1 sequence (Q13569 whole entry): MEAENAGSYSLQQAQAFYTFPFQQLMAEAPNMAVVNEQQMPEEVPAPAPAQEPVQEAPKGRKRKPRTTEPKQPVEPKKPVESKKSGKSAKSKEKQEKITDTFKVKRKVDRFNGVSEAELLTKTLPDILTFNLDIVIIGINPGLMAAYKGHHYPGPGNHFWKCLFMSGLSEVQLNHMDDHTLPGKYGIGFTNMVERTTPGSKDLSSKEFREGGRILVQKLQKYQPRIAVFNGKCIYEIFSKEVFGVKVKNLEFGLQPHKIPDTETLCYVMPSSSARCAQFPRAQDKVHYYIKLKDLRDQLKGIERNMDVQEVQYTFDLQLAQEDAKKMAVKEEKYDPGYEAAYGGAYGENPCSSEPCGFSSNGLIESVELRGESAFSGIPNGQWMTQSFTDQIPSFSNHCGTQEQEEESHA

`COc1ccc2c(c1)CN(CCC(=O)c1ccc3c(c1)OCCO3)C2` [Compound 5, 1-(2,3-dihydrobenzo[b][1,4]dioxin-6-yl)-3-(5-methoxyisoindolin-2-yl)propan-1-one]: on TDG [1], the inhibition at 10 µM is less than 25%. Also, the IC50 (at TDG [2]; in assay [3]) was not above 5 µM each time.

For `O=C(CCN1CCC(c2ccc([N+](=O)[O-])cc2)C1)c1ccc2c(c1)OCCO2` (stereo not drawn) [Compound 46, 1-(2,3-dihydrobenzo[b][1,4]dioxin-6-yl)-3-(3-(4-nitrophenyl)pyrrolidin-1-yl)propan-1-one], on TDG [1], the inhibition at 10 µM is less than 25%. For the same compound, the IC50 (on TDG [2]; in assay [3]) was not above 5 µM in each case.

With `O=C(CCN1CCC(c2ccc(Cl)cc2)C1)c1ccc2c(c1)OCCO2` (stereo not drawn) [Compound 49, 3-(3-(4-chlorophenyl)pyrrolidin-1-yl)-1-(2,3-dihydrobenzo[b][1,4]dioxin-6-yl)propan-1-one], the inhibition at 10 µM at TDG [1] is less than 25%. In addition, the concentration for half-maximal inhibition (IC50) (at TDG [2]; in assay [3]) was not above 5 µM throughout.

Turning to `O=C(CCN1CCCC1)c1ccc2c(c1)OCCO2` [Compound 16, 1-(2,3-dihydrobenzo[b][1,4]dioxin-6-yl)-3-(pyrrolidin-1-yl)propan-1-one], the inhibition at 10 µM at TDG [1] was less than 25%. The IC50 is not above 5 µM at TDG [2] and more than 5 µM in assay [3].

For the compound `O=C(CN1Cc2ccccc2C1)c1ccc2c(c1)OCCO2` [Compound 32, 1-(2,3-dihydrobenzo[b][1,4]dioxin-6-yl)-2-(isoindolin-2-yl)ethan-1-one], the inhibition at 10 µM at TDG [1] was less than 25%. For the same compound, the IC50 (on TDG [2]; in assay [3]) was more than 5 µM each time.

With `O=C(CCN1Cc2ccc(F)cc2C1)c1ccc2c(c1)OCCO2` [Compound 6, 1-(2,3-dihydrobenzo[b][1,4]dioxin-6-yl)-3-(5-fluoroiso-2-yl)propan-1-one], the inhibition at 10 µM on TDG [1] was less than 25%. For the same compound, the IC50 was not above 5 µM on TDG [2] and more than 5 µM in assay [3].

Regarding `O=C(CCN1CCOc2ccccc21)c1ccc2c(c1)OCCO2` [Compound 15, 3-(2,3-dihydro-4H-benzo[b][1,4]oxazin-4-yl)-1-(2,3-dihydrobenzo[b][1,4]dioxin-6-yl)propan-1-one], the inhibition at 10 µM on TDG [1] was less than 25%. In addition, the IC50 (at TDG [2]; in assay [3]) was more than 5 µM each time.

As to `O=C(CCN1Cc2ccccc2C1)c1ccc2c(c1)CCCN2` [Compound 30, 3-(isoindolin-2-yl)-1-(1,2,3,4-tetrahydroquinolin-6-yl)propan-1-one], on TDG [1], the inhibition at 10 µM was less than 25%. In addition, the IC50 (on TDG [2]; in assay [3]) was more than 5 µM in each case.

`O=C(CCN1CCN(c2ncccn2)CC1)c1ccc2c(c1)OCCO2` [Compound 19, 1-(2,3-dihydrobenzo[b][1,4]dioxin-6-yl)-3-(4-(pyrimidin-2-yl)piperazin-1-yl)propan-1-one]: the inhibition at 10 µM on TDG [1] was less than 25%. Besides, the IC50 is more than 5 µM at TDG [2] and not above 5 µM in assay [3].

In the case of `CC(=O)c1ccc2c(c1)CN(CCC(=O)c1ccc3c(c1)OCCO3)C2` [Compound 7, 3-(5-acetylisoindolin-2-yl)-1-(2,3-dihydrobenzo[b][1,4]dioxin-6-yl)propan-1-one], the inhibition at 10 µM at TDG [1] was less than 25%. The values for the IC50 (at TDG [2]; in assay [3]) were not above 5 µM and more than 5 µM, respectively.

Regarding `c1ccc2c(c1)CN(CCCc1ccc3c(c1)OCCO3)C2` [Compound 29, 2-(3-(2,3-dihydrobenzo[b][1,4]dioxin-6-yl)propyl)isoindoline], the inhibition at 10 µM at TDG [1] is more than 25%. Also, the half-inhibitory concentration (IC50) (at TDG [2]; in assay [3]) was more than 5 µM in each case.

For the compound `O=C(CCN1CCC(O)(c2ccccc2)C1)c1ccc2c(c1)OCCO2` (stereo not drawn) [Compound 44, 1-(2,3-dihydrobenzo[b][1,4]dioxin-6-yl)-3-(3-hydroxy-3-phenylpyrrolidin-1-yl)propan-1-one], on TDG [1], the inhibition at 10 µM is less than 25%. The values for the IC50 (at TDG [2]; in assay [3]) were more than 5 µM and not above 5 µM, respectively.

As for `COc1ccc(C(=O)CCN2Cc3ccccc3C2)cc1OC` [Compound 38, 1-(3,4-dimethoxyphenyl)-3-(isoindolin-2-yl)propan-1-one], the inhibition at 10 µM at TDG [1] was more than 25%. Besides, the IC50 (on TDG [2]; in assay [3]) was more than 5 µM throughout.

Turning to `O=C(CCN1CCC(c2ccc(F)cc2O)C1)c1ccc2c(c1)OCCO2` (stereo not drawn) [Compound 51, 1-(2,3-dihydrobenzo[b][1,4]dioxin-6-yl)-3-(3-(4-fluoro-2-hydroxyphenyl)pyrrolidine-1-yl)propan-1-one], at TDG [1], the inhibition at 10 µM was less than 25%. For the same compound, the IC50 (at TDG [2]; in assay [3]) was more than 5 µM in each case.

One may read the inhibition as the drop in the measured response relative to a control, in per cent. In general, IC50 refers to the concentration at which inhibition is half-maximal.
